The values below come from patent US10414769B2, “5,8-dimethyl-9-phenyl-5,8-dihydro-6H-pyrazolo[3,4-h]quinazolin-2-yl)-(1H-pyrazol-3-yl)-amines as IGF-1R/IR inhibitors” (Boehringer Ingelheim International GmbH, priority 2015, dated 2019).

The term inhibition denotes the change of the read-out against control, counted positive when it falls.

Holding throughout (type): biochemical
One assay concerns the target T1, FRAP1 (mTOR) (Homo sapiens, UniProt P42345).
T1 construct: purchased Life Technologies PR8683B
The assay can be described thus: Z'-LYTE kinase selectivity assay FRAP1 (mTOR). From the text: (§1) In order to compare the kinase selectivity of compounds (I) according to the invention with known prior art compounds the commercially provided SelectScreen® Kinase Profiling Service (Z′-LYTE®) was used (Life Technologies GmbH, Darmstadt, Germany) to investigate the ability of the compounds to inhibit a number of different, representatively selected human kinases. Further details regarding this service are available on the Life Technologies website at
(§2) The Z′-LYTE® biochemical assay employs a fluorescence-based, coupled-enzyme format and is based on the differential sensitivity of phosphorylated and non-phosphorylated peptides to proteolytic cleavage. The peptide substrate is labeled with two fluorophores—one at each end—that make up a FRET pair.
(§3) In the primary reaction, the kinase transfers the gamma-phosphate of ATP to a single tyrosine, serine or threonine residue in a synthetic FRET-peptide. In the secondary reaction, a site-specific protease recognizes and cleaves non-phosphorylated FRET-peptides. Phosphorylation of FRET-peptides suppresses cleavage by the Development Reagent. Cleavage disrupts FRET between the donor (i.e., coumarin) and acceptor (i.e., fluorescein) fluorophores on the FRET-peptide, whereas uncleaved, phosphorylated FRET-peptides maintain FRET. A ratiometric method, which calculates the ratio (the Emission Ratio) of donor emission to acceptor emission after excitation of the donor fluorophore at 400 nm, is used to quantitate reaction progress, as shown in the equation below.
(§4) The Test Compounds are screened at 1 μM.
The 2×FRAP1 (mTOR) (# PR8683B)/Ser/Thr 11 (Z′-LYTE® Kinase Assay Kit—Ser/Thr 11 Peptide, # PV 3670) mixture is prepared in 50 mM HEPES pH 7.5, 0.01% BRIJ-35, 10 mM MnCl2, 1 mM EGTA, 2 mM DTT, 0.02% NaN3. The final 10 μL Kinase Reaction consists of 11.1-56 ng FRAP1 (mTOR) and 2 μM Ser/Thr 11 in 50 mM HEPES pH 7.5, 0.01% BRIJ-35, 5 mM MgCl2, 5 mM MnCl2, 1 mM EGTA, 1 mM DTT, 0.01% NaN3. After the 1 hour Kinase Reaction incubation, 5 μL of a 1:16 dilution of Development Reagent B is added.

The next assay has as its target T2, RAF1 (cRAF) Y340D Y341D (Homo sapiens, UniProt P04049, Y340D/Y341D).
T2 construct: purchased Life Technologies PV 4046
The assay can be described thus: Z'-LYTE kinase selectivity assay RAF1.
Source text: as §1, §2, §3, §4
After the 1 hour Kinase Reaction incubation, 5 μL of a 1:1024 dilution of Development Reagent A is added.

A further assay has as its target T3, STK6 (AURKA (Aurora A)) (Homo sapiens, UniProt O14965).
T3 construct: purchased Life Technologies PV 3612
T3 sequence (O14965 1-403): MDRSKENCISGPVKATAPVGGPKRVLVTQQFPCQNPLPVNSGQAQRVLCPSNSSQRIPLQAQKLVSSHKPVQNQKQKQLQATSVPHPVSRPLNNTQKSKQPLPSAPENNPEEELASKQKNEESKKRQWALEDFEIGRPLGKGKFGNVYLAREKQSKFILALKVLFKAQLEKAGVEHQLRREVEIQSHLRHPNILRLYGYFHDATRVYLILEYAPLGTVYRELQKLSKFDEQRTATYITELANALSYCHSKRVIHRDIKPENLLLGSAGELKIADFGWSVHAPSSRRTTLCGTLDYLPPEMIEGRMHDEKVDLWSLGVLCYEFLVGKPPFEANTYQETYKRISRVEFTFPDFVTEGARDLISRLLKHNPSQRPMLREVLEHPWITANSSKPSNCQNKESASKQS
The assay can be described thus: Z'-LYTE kinase selectivity assay STK6. The settings on record: read-out: STK6 (Aur A) % inhibition.
Source text: as §1, §2, §3, §4
The 2×AURKA (Aurora A) (# PV 3612)/Ser/Thr 01 (Z′-LYTE® Kinase Assay Kit—Ser/Thr 1 Peptide, # PV 3174) mixture is prepared in 50 mM HEPES pH 7.5, 0.01% BRIJ-35, 10 mM MgCl2, 1 mM EGTA. The final 10 μL Kinase Reaction consists of 0.91-12.2 ng AURKA (Aurora A) and 2 μM Ser/Thr 01 in 50 mM HEPES pH 7.5, 0.01% BRIJ-35, 10 mM MgCl2, 1 mM EGTA. After the 1 hour Kinase Reaction incubation, 5 μL of a 1:4096 dilution of Development Reagent A is added.

The target of another assay is T4, MAPK8 (JNK1) (Homo sapiens, UniProt P45983).
T4 construct: purchased Life Technologies PV 3593
The assay can be described thus: Z'-LYTE kinase selectivity assay MAPK8.
Source text: as §1, §2
(§5) In the primary reaction, the kinase transfers the gamma-phosphate of ATP to a single tyrosine, serine or threonine residue in a synthetic FRET-peptide. In the secondary reaction, a site-specific protease recognizes and cleaves non-phosphorylated FRET-peptides. Phosphorylation of FRET-peptides suppresses cleavage by the Development Reagent. […] A ratiometric method, which calculates the ratio (the Emission Ratio) of donor emission to acceptor emission after excitation of the donor fluorophore at 400 nm, is used to quantitate reaction progress, as shown in the equation below. […]

A further assay addresses T5, MAPK9 (JNK2) (Homo sapiens, UniProt P45984).
T5 construct: purchased Life Technologies PV 4018
The assay can be described thus: Z'-LYTE kinase selectivity assay MAPK9.
Source text: as §1, §2, §5

T2 sequence (P04049 306-648 Y340D/Y341D limits assumed): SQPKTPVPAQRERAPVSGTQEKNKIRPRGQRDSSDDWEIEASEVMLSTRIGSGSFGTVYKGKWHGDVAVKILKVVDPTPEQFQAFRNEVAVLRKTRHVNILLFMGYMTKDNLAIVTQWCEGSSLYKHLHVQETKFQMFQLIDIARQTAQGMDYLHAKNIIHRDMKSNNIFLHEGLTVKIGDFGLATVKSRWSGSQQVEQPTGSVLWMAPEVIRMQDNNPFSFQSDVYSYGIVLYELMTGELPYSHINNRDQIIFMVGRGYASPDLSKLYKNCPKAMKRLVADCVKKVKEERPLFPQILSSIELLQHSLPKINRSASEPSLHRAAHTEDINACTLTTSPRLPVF
T5 sequence (P45984 whole entry): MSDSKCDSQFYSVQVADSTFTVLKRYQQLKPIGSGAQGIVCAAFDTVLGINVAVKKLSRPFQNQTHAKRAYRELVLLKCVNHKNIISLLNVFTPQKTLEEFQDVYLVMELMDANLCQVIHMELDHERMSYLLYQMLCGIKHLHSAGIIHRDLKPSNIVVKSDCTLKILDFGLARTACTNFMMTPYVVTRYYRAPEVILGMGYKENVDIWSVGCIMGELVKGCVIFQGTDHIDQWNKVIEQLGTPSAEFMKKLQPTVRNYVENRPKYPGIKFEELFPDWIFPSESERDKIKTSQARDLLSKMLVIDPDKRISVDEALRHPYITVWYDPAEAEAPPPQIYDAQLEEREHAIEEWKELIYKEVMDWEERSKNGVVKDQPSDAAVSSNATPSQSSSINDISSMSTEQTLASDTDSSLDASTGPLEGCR
T4 sequence (P45983 whole entry): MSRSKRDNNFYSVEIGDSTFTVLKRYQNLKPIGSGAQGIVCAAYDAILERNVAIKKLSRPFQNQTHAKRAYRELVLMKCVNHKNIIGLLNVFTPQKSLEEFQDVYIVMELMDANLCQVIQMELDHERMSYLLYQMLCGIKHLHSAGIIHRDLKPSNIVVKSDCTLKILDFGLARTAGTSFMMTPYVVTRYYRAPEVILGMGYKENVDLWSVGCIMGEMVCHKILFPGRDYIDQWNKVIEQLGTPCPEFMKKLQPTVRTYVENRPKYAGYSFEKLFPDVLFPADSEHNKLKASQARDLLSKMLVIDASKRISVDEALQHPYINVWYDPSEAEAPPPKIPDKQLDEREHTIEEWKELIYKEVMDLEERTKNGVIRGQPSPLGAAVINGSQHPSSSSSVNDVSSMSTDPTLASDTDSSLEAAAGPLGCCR

Take `C[C@@H]1Cc2nn(C)c(-c3ccccc3)c2-c2nc(Nc3ccn(CCN4CCOCC4)n3)ncc21` [Compound I-2]: the results for the inhibition at 1 µM against FRAP1 (mTOR), at RAF1 (cRAF) Y340D Y341D and on STK6 (AURKA (Aurora A)) were 1%, 40% and 12%, respectively.

With `CC(O)CN1CCN(CCn2ccc(Nc3ncc4c(n3)-c3c(nn(C)c3-c3ccccc3)C[C@H]4C)n2)CC1` (some centres unmarked) [Compound I-7], the inhibition at 1 µM against FRAP1 (mTOR) came to 3%; against RAF1 (cRAF) Y340D Y341D, 36%; on STK6 (AURKA (Aurora A)) it was 5%.

Regarding `COCCN1CCN(CCn2ccc(Nc3ncc4c(n3)-c3c(nn(C)c3-c3ccccc3)C[C@H]4C)n2)CC1` [Compound I-11], the inhibition at 1 µM was -11% against FRAP1 (mTOR); 14% on RAF1 (cRAF) Y340D Y341D; -12% on STK6 (AURKA (Aurora A)); 12% at MAPK8 (JNK1); 7% at MAPK9 (JNK2).

Turning to `C[C@@H]1Cc2nn(C)c(-c3ccccc3)c2-c2nc(Nc3ccn(CCN4CCN(CC5CCCO5)CC4)n3)ncc21` (some centres unmarked) [Compound I-9], the inhibition at 1 µM at FRAP1 (mTOR) was -12%; on RAF1 (cRAF) Y340D Y341D, 32%; on STK6 (AURKA (Aurora A)) it was 10%.

In the case of `C[C@@H]1Cc2nn(C)c(-c3ccccc3)c2-c2nc(Nc3ccn(CCN4CCN(CC(=O)OC5CCOCC5)CC4)n3)ncc21` [Compound I-8], the figures for the inhibition at 1 µM against FRAP1 (mTOR), on RAF1 (cRAF) Y340D Y341D and on STK6 (AURKA (Aurora A)) were -8%, 25% and 6%, respectively.

With `C[C@@H]1Cc2nn(C)c(-c3ccccc3)c2-c2nc(Nc3ccn(CCN4CCN(C)CC4)n3)ncc21` [Compound I-1], the inhibition at 1 µM against FRAP1 (mTOR) was -6%; at RAF1 (cRAF) Y340D Y341D, 16%; at STK6 (AURKA (Aurora A)), -15%.

`C[C@@H]1Cc2nn(C)c(-c3ccccc3)c2-c2nc(Nc3ccn(CCN4CCN(CC(C)(C)O)CC4)n3)ncc21` [Compound I-3]: the figures for the inhibition at 1 µM on FRAP1 (mTOR), on RAF1 (cRAF) Y340D Y341D and at STK6 (AURKA (Aurora A)) were -10%, 31% and 14%, respectively.
